Results reported in PubChem BioAssay AID2060601 (Molecular Pharmacology Branch, DTP, NCI, 2025).
Where “and” joins values, the source holds several entries; their conditions need not be identical. Identical values can stand only once.

System: 874868-142-R-J2-PDC complex spheroids, growth % test/control
Test: Anticancer human tumor 874868-142-R-J2-PDC patient-derived head and neck squamous carcinoma cell line growth inhibition [CLK]
Conditions: for viability, T/C: stronger effect = lower value; active = viability on the fitted dose curve at most 10% of control; inactive = the rest
Excerpt: A high-throughput screen of multi-cell type tumor spheroids was designed to identify active combinations of […] and targeted small molecules. Complex spheroids include a stromal component modeled by human endothelial cells (HUVEC) and fibroblasts modeled by human mesenchymal stem cells (MSCs). The concentration ranges selected for each drug and investigational agent were based upon clinically achievable concentrations if the clinical Cmax of the agent was known.
Compounds. The drugs and investigational agents: cirtuvivint (SM08502; NSC835563), CC-671 (NSC850746), vemurafenib (NSC761431), tapotoclax (NSC804041), sotorasib (NSC818433), adagrasib (NSC831453), MRTX-1133 (NSC836407), BAY2416964 (NSC825713), copanlisib (NSC816437), inavolisib (NSC800729), abemaciclib (NSC768073), osimertinib (NSC779217), entinostat (NSC756642), eltanexor (KPT-8602, NSC794443), venetoclax (NSC766270), ceralasertib (NSC777638), bortezomib (NSC756655), olaparib (NSC753686), talazoparib (NSC767125), alisertib (NSC759677), peposertib (NSC802822), gemcitabine (NSC613327), 5-fluorouracil (NSC19893), SN-38 (NSC673596), oxaliplatin (NSC266046), paclitaxel (NSC125973), and doxorubicin (NSC123127), were obtained from the National Cancer Institute (NCI) Developmental Therapeutics Program Chemical Repository. The FDA-approved anticancer drug set is available from the Developmental Therapeutics Program at https://dtp.cancer.gov/organization/dscb/obtaining/available plates.htm. […] The stock solutions were prepared in dimethyl sulfoxide (DMSO, Sigma-Aldrich, St. Louis, MO, cat. D2650), except for the platinum complexes which were prepared in saline (Quality Biological, Gaithersburg, MD, cat. 114-055-101), at 800-fold the tested concentration and stored at -70 degrees C prior to their use. All drugs and investigational agents were tested over a range starting from a high concentration at or near the clinical Cmax and decreasing in half-log increments. If the clinical Cmax for an agent had not been determined, the highest concentration tested was 10 microM.
Cell Culture. All cells were maintained in an incubator at 37 degrees C and 5% CO2 with 95% humidity. The PDC lines were cultured according to standard operating procedures established by the NCI PDMR. Briefly, all PDCs were thawed and cultured in Matrigel-coated flasks prepared with a working solution of 1X Ham's F-12 nutrient mix, without supplementation (Invitrogen, Waltham, MA, cat. 11765054), 100 U/mL penicillin-streptomycin (Invitrogen, cat. 15140122), and 2.5% Matrigel (Corning Inc., Corning, NY, cat. 354248) for the first three passages. The 947758-054-R-J2-PDC line was cultured in 6B/Colon 1A media, which includes advanced DMEM/F-12 (Thermo Fisher Scientific, cat. 12634028), 10 mM HEPES (Thermo Fisher Scientific, cat. 15630080), 1X GlutaMAX supplement (Thermo Fisher Scientific, cat. 35050061), 0.1 mg/mL primocin (InvivoGen, cat. ant-pm-2), 10% defined fetal bovine serum, heat inactivated (HyClone Laboratories Inc., cat. SH30070.03HI), 1.25 mM N-Acetyl-L-cysteine (Sigma-Aldrich, cat. A9165), 10 mM nicotinamide (Sigma-Aldrich, cat. N0636), 1X B-27 supplement (Thermo Fisher Scientific, cat. 17504044), 1X N-2 supplement (Thermo Fisher Scientific, cat. 17502048), and 10 microM Y-27632 dihydrochloride (Tocris Bioscience, cat. 1254). The 876862-298-R-J1-PDC was cultured in 6E media, which includes all 6B/Colon 1A media components plus 50% L-WRN conditioned media (ATCC, cat. CRL-3276), 50 ng/mL recombinant human EGF recombinant protein (hEGF; Thermo Fisher Scientific, cat. PHG0311), 10 ng/mL recombinant human fibroblast growth factor 10 (hGFG-10; PeproTech, cat. 100-26), 1 ng/mL recombinant human fibroblast growth factor 2 (hFGF-2; PeproTech, cat. 100-18B), and 1 µM prostaglandin E2 (PGE2; Tocris, cat. 2296). The 227483-062-R1-J1-PDC line was cultured in Panc media, containing all 6E components except hFGF-2, with the addition of 500 nM SB-431542 (Selleckchem, cat. S1067) and 10 nM gastrin (Tocris, cat. 3006). […]
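Note: spheroids exposed to the compounds for 7 days.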

O=C(c1cc(Cc2n[nH]c(=O)c3ccccc23)ccc1F)N1CCN(C(=O)C2CC2)CC1 + CN1CCN(c2cc(C(=O)Nc3cc4cc(-c5cnn(C)c5)ccc4cn3)ccn2)CC1
inactive: viability, T/C (second compound 0.0316 µM, first compound 0.0316 µM) 86.3% | viability, T/C (second compound 0.0316 µM, first compound 0.1 µM) 88% | viability, T/C (second compound 0.0316 µM, first compound 0.316 µM) 89.6% | viability, T/C (second compound 0.0316 µM, first compound 1 µM) 94.7% | viability, T/C (second compound 0.0316 µM, first compound 3.16 µM) 68.2% | viability, T/C (second compound 0.0316 µM, first compound 10 µM) 83.5% | viability, T/C (second compound 0.1 µM, first compound 0.0316 µM) 71.1% | viability, T/C (second compound 0.1 µM, first compound 0.1 µM) 70.4% | viability, T/C (second compound 0.1 µM, first compound 0.316 µM) 69.2% | viability, T/C (second compound 0.1 µM, first compound 1 µM) 65.6% | viability, T/C (second compound 0.1 µM, first compound 3.16 µM) 46.4% | viability, T/C (second compound 0.1 µM, first compound 10 µM) 60.5% | viability, T/C (second compound 0.316 µM, first compound 0.0316 µM) 23.5% | viability, T/C (second compound 0.316 µM, first compound 0.1 µM) 20.9% | viability, T/C (second compound 0.316 µM, first compound 0.316 µM) 17.7% | viability, T/C (second compound 0.316 µM, first compound 1 µM) 12.1% | viability, T/C (second compound 0.316 µM, first compound 3.16 µM) 21.3% | viability, T/C (second compound 0.316 µM, first compound 10 µM) 15.1%
active: viability, T/C (second compound 1 µM, first compound 0.0316 µM) 0.42% | viability, T/C (second compound 1 µM, first compound 0.1 µM) 0.25% | viability, T/C (second compound 1 µM, first compound 0.316 µM) 0.36% | viability, T/C (second compound 1 µM, first compound 1 µM) 0.19% | viability, T/C (second compound 1 µM, first compound 3.16 µM) 0.32% | viability, T/C (second compound 1 µM, first compound 10 µM) 0.44% | viability, T/C (second compound 3.16 µM, first compound 0.0316 µM) 0.18% | viability, T/C (second compound 3.16 µM, first compound 0.1 µM) 0.2% | viability, T/C (second compound 3.16 µM, first compound 0.316 µM) 0.63% | viability, T/C (second compound 3.16 µM, first compound 1 µM) 0.28% | viability, T/C (second compound 3.16 µM, first compound 3.16 µM) 0.34% | viability, T/C (second compound 3.16 µM, first compound 10 µM) 2.51% | viability, T/C (second compound 10 µM, first compound 0.0316 µM) 0.11% | viability, T/C (second compound 10 µM, first compound 0.1 µM) 0.31% | viability, T/C (second compound 10 µM, first compound 0.316 µM) 3.38% | viability, T/C (second compound 10 µM, first compound 1 µM) 0.18% | viability, T/C (second compound 10 µM, first compound 3.16 µM) 0.23% | viability, T/C (second compound 10 µM, first compound 10 µM) 0.69%
> 10000 nM: IC50 (curve of first compound, second compound 0.0316 µM) | IC50 (curve of first compound, second compound 0.1 µM)
< 31.6 nM: IC50 (curve of first compound, second compound 0.316 µM) | IC50 (curve of first compound, second compound 1 µM) | IC50 (curve of first compound, second compound 3.16 µM) | IC50 (curve of first compound, second compound 10 µM)

NC(=O)C(=Cn1cnc(-c2cc(C(F)(F)F)cc(C(F)(F)F)c2)n1)c1cncnc1
73 nM and 31.1 nM: IC50 (curve of compound)
active: viability, T/C (compound 0.949 µM) 4.77% and 4.05% | viability, T/C (compound 3 µM) 8.1% and 6.28%
inactive: viability, T/C (compound 0.00949 µM) 90.5% and 86% | viability, T/C (compound 0.03 µM) 72.8% and 48.9% | viability, T/C (compound 0.0949 µM) 43.8% and 30.9% | viability, T/C (compound 0.3 µM) 18.4% and 12%
